Test results taken from article PMC7602263, “Exploring the Use of Helicogenic Amino Acids for Optimising Single Chain Relaxin-3 Peptide Agonists” (Biomedicines, 2020).
Read-outs that look alike come from different tables or passages of the source. Where a SMILES comes first, the peptide text is derived from it. Bridges are numbered along the chain shown (N, C = ends). Where no end group is shown, it is not given here. [ ]: non-standard residue; d: D form. S5 = C=CCCC[C@](C)(N)C(=O)O

Assays:
RXFP3 [1] = biological target: T1, RXFP3 (Homo sapiens, UniProt Q9NSD7); assay: cAMP activity assay: inhibition of forskolin-induced cAMP accumulation in CHO-K1 cells stably expressing RXFP3; assay type: cell-based; settings: CHO-K1 cells stably expressing RXFP3; inhibition of cAMP accumulation stimulated by 5 μM forskolin; mean ± SEM, triplicates, three independent experiments; SEM
T1 construct: expressed in transfected cells; host or cells: CHO-K1
T1 sequence (Q9NSD7 1-469): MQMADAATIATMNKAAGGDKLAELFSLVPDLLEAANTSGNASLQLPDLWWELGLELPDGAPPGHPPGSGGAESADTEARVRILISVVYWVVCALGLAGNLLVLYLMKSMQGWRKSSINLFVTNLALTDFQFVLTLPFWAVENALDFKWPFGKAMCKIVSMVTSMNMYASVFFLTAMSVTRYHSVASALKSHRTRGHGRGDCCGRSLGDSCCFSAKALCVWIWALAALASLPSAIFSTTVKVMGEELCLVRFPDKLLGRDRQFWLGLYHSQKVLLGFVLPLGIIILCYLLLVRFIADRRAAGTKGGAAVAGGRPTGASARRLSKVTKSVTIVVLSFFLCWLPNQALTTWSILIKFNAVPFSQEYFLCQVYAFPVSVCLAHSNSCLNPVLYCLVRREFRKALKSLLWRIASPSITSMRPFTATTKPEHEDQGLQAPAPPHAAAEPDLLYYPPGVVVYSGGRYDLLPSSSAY
Method: CHO-KI cells stably expressing RXFP3 were used to study the ability of the novel analogues to inhibit forskolin-induced cAMP accumulation. Assays were conducted as previously described. Briefly, 5 μM forskolin was used to stimulate the cells and increasing concentrations of the novel analogues were added to measure the dose-dependent reduction in the cAMP response via activation of the Gi/o-coupled RXFP3. Each analogue was tested in triplicates and each experiment was independently repeated three times. Data are presented as mean ± SEM and were analysed using GraphPad Prism 8.0. Statistical analyses were conducted using 1-way ANOVA and uncorrected Fisher’s least square difference.
(§1) To determine their binding affinity, the ability of increasing concentration of analogues to compete with europium labelled R3 B1-22R were measured using CHO cells stably expressing RXFP3 [37]. Their potency at RXFP3 was measured by inhibition of cAMP accumulation induced by forskolin, as RXFP3 couples to an inhibitory G-protein.

RXFP3 [2] = biological target: T1, RXFP3; assay: Competition binding assay with Eu-labelled R3 B1-22R on CHO-K1 cells stably expressing RXFP3; settings: read-out: pKi [logM] (converted)
Method: Determination of binding affinity in this study was carried out as previously described. Briefly, CHO-K1 cells stably expressing RXFP3 [38] were treated with 5 nM Eu-labelled R3 B1-22R with increasing concentrations of novel analogues. Fluorescence measurement were recorded with 340 nm excitation and 614 nm emission wavelengths. Assays were conducted in triplicates and independently repeated at least three times. […] Statistical analyses were conducted using 1-way ANOVA with uncorrected Fisher’s least square difference in GraphPad Prism 8.0.
as §1

RXFP3 [3] = biological target: T1, RXFP3; parameters: method as in 2 sources, one per row (each row's own in cited_ref): ref [37] = [37]; PMID 25792111; doi:10.1007/s00726-015-1961-x; 37. Haugaard-Kedström L.M. Wong L.L. Bathgate R.A. Rosengren K.J. Synthesis and pharmacological characterization of a europium-labelled single-chain antagonist for binding studies of the relaxin-3 rec ||| ref [28] = [28]; PMID 27464307; doi:10.1021/acs.jmedchem.6b00265; 28. Hojo K. Hossain M.A. Tailhades J. Shabanpoor F. Wong L.L. Ong-Palsson E.E. Kastman H.E. Ma S.K. Gundlach A.L. Rosengren K.J. Development of a single-chain peptide agonist of the relaxin-3 receptor; settings: read-out: Kd for Eu-R3 B1-22R; Kd of the Eu-labelled tracer at RXFP3, used to calculate pKi values; assay as previously described; ref [37]; cited from earlier work

EC50 (RXFP3 [1]) [µM]	Ki (RXFP3 [2]; SEM) [µM]	Ki (RXFP3 [2]) [µM]	Molecule	Kd (RXFP3 [3]) [µM]
0.0417	0.933	–	C=CCCC[C@](C)(NC(=O)[C@H](CCCNC(=N)N)NC(=O)CNC(=O)[C@H](CO)NC(C)=O)C(=O)N[C@@H](Cc1ccccc1)C(=O)N[C@H](C(=O)N[C@@H](CCCNC(=N)N)C(=O)N[C@@](C)(CCCC=C)C(=O)N[C@H](C(=O)N[C@H](C(=O)N[C@@H](Cc1ccccc1)C(=O)N[C@H](C(=O)N[C@@H](CO)C(=O)NCC(=O)NCC(=O)N[C@@H](CO)C(=O)N[C@@H](CCCNC(=N)N)C(=O)N[C@@H](Cc1c[nH]c2ccccc12)C(=O)O)[C@@H](C)O)[C@@H](C)CC)C(C)C)[C@@H](C)CC [Analogue 11] (HELM PEPTIDE1{[ac].S.G.R.[C=CCCC[C@](C)(N[*:1])C(=O)[*:2]].F.I.R.[C=CCCC[C@](C)(N[*:1])C(=O)[*:2]].V.I.F.T.S.G.G.S.R.W}$$$$V2.0)	–
0.00646	0.182	–	CC[C@H](C)[C@@H]1NC(=O)[C@H](Cc2ccccc2)NC(=O)[C@@](C)(NC(=O)[C@H](CCCNC(=N)N)NC(=O)CNC(=O)[C@H](CO)NC(=O)[C@H](CCCCN)NC(=O)[C@H](CCCCN)NC(=O)[C@H](CCCCN)NC(=O)[C@@H](N)CCCCN)CCCC=CCCC[C@@](C)(C(=O)N[C@H](C(=O)N[C@H](C(=O)N[C@@H](Cc2ccccc2)C(=O)N[C@H](C(=O)N[C@@H](CO)C(=O)NCC(=O)NCC(=O)N[C@@H](CO)C(=O)N[C@@H](CCCNC(=N)N)C(=O)N[C@@H](Cc2c[nH]c3ccccc23)C(=O)O)[C@@H](C)O)[C@@H](C)CC)C(C)C)NC(=O)[C@H](CCCNC(=N)N)NC1=O [Analogue 12] (H-KKKKSGR[S5]FIR[S5]VIFTSGGSRW-OH; staple 8-12)	–
6.17	–	> 10	CC[C@H](C)[C@@H]1NC(=O)[C@H](Cc2ccccc2)NC(=O)[C@@H](NC(=O)[C@H](CCCNC(=N)N)NC(=O)CNC(=O)[C@@H](N)CO)CSCC(=O)CSC[C@@H](C(=O)N[C@H](C(=O)N[C@H](C(=O)N[C@@H](Cc2ccccc2)C(=O)N[C@H](C(=O)N[C@@H](CO)C(=O)NCC(=O)NCC(=O)N[C@@H](CO)C(=O)N[C@@H](CCCNC(=N)N)C(=O)N[C@@H](Cc2c[nH]c3ccccc23)C(=O)O)[C@@H](C)O)[C@@H](C)CC)C(C)C)NC(=O)[C@H](CCCNC(=N)N)NC1=O [Analogue 14] (HELM PEPTIDE1{S.G.R.C.F.I.R.C.V.I.F.T.S.G.G.S.R.W}|CHEM1{[O=C(C[*:1])C[*:2]]}$PEPTIDE1,CHEM1,4:R3-1:R1|PEPTIDE1,CHEM1,8:R3-1:R2$$$V2.0)	–
4.79	4.79	–	CC[C@H](C)[C@@H]1NC(=O)[C@H](Cc2ccccc2)NC(=O)[C@@H](NC(=O)[C@H](CCCNC(=N)N)NC(=O)CNC(=O)[C@H](CO)NC(C)=O)CSCC(=O)CSC[C@@H](C(=O)N[C@H](C(=O)N[C@H](C(=O)N[C@@H](Cc2ccccc2)C(=O)N[C@H](C(=O)N[C@@H](CO)C(=O)NCC(=O)NCC(=O)N[C@@H](CO)C(=O)N[C@@H](CCCNC(=N)N)C(=O)N[C@@H](Cc2c[nH]c3ccccc23)C(=O)O)[C@@H](C)O)[C@@H](C)CC)C(C)C)NC(=O)[C@H](CCCNC(=N)N)NC1=O [Analogue 15] (HELM PEPTIDE1{[ac].S.G.R.C.F.I.R.C.V.I.F.T.S.G.G.S.R.W}|CHEM1{[O=C(C[*:1])C[*:2]]}$PEPTIDE1,CHEM1,5:R3-1:R1|PEPTIDE1,CHEM1,9:R3-1:R2$$$V2.0)	–
1.05	1	–	CC[C@H](C)[C@@H]1NC(=O)[C@H](Cc2ccccc2)NC(=O)[C@@H](NC(=O)[C@H](CCCNC(=N)N)NC(=O)CNC(=O)[C@@H](N)CO)CSCc2cccc(c2)CSC[C@@H](C(=O)N[C@H](C(=O)N[C@H](C(=O)N[C@@H](Cc2ccccc2)C(=O)N[C@H](C(=O)N[C@@H](CO)C(=O)NCC(=O)NCC(=O)N[C@@H](CO)C(=O)N[C@@H](CCCNC(=N)N)C(=O)N[C@@H](Cc2c[nH]c3ccccc23)C(=O)O)[C@@H](C)O)[C@@H](C)CC)C(C)C)NC(=O)[C@H](CCCNC(=N)N)NC1=O [Analogue 16] (HELM PEPTIDE1{S.G.R.C.F.I.R.C.V.I.F.T.S.G.G.S.R.W}|CHEM1{[c1cc(C[*:1])cc(C[*:2])c1]}$PEPTIDE1,CHEM1,4:R3-1:R1|PEPTIDE1,CHEM1,8:R3-1:R2$$$V2.0)	–
0.851	1.05	–	CC[C@H](C)[C@@H]1NC(=O)[C@H](Cc2ccccc2)NC(=O)[C@@H](NC(=O)[C@H](CCCNC(=N)N)NC(=O)CNC(=O)[C@H](CO)NC(C)=O)CSCc2cccc(c2)CSC[C@@H](C(=O)N[C@H](C(=O)N[C@H](C(=O)N[C@@H](Cc2ccccc2)C(=O)N[C@H](C(=O)N[C@@H](CO)C(=O)NCC(=O)NCC(=O)N[C@@H](CO)C(=O)N[C@@H](CCCNC(=N)N)C(=O)N[C@@H](Cc2c[nH]c3ccccc23)C(=O)O)[C@@H](C)O)[C@@H](C)CC)C(C)C)NC(=O)[C@H](CCCNC(=N)N)NC1=O [Analogue 17] (HELM PEPTIDE1{[ac].S.G.R.C.F.I.R.C.V.I.F.T.S.G.G.S.R.W}|CHEM1{[c1cc(C[*:1])cc(C[*:2])c1]}$PEPTIDE1,CHEM1,5:R3-1:R1|PEPTIDE1,CHEM1,9:R3-1:R2$$$V2.0)	–
–	–	–	Eu-R3 B1-22R: europium-labelled single-chain antagonist used as tracer in the RXFP3 binding assay (RAAPYGVRLSGREFIRAVIFTSR; also: europium chelate label, attachment site not given here)	0.0279 ± 0.0094
